Laboratory results from patent US7776893B2, “Use of PDE4 inhibitors for the treatment of diabetes mellitus” (NYCOMED GmbH, priority 2003, dated 2010).

Key:
Assay type in all cases: in vivo
C57BLKS db/db mice [1] = test: 56 days study: fasting blood glucose and oral glucose tolerance; details: for Blood glucose 15 min after glucose application: 1 g/kg oral glucose; for Blood glucose fasting: fasted 24 h
Procedure: (§1) Female C57BLKS db/db mice obtained from M&B A/S (8680 Ry, Denmark) were used In the studies at 10 to 11 weeks of age. Mice were housed 10 per cage and allowed free access to water and chow (chow 3433, Provimi Kliba SA, 4303 Kaiseraugst, Switzerland).
(§2) Mice were allowed to acclimate to the local animal facilities for 1 week and retro-orbital blood samples were obtained 3 to 7 days prior to the start of the study.
(§3) Mice were treated with vehicle or a selected PDE4 inhibitor compound once daily in the morning. The selective PDE4 inhibitor compounds to be tested were suspended in 4% methocel and applied via oral gavage using oral feeding & dosing needles (outer diameter: 1.5 mm, TSE GmbH, 61350 Bad Homburg, Germany). A volume of 10 ml/kg body weight was administered for each dose.
(§4) 56 days studies: Mice were treated with vehicle or a selected PDE4 inhibitor compound once daily in the morning. On day 55, mice were fasted for 24 hours by removing chow 1 hour after drug application. On day 56, fasting blood glucose levels were measured and glucose tolerance was assessed by oral application of 1 g/kg/10 ml glucose. Blood was sampled 15 minutes after glucose application and levels of glucose (accu-chek, Roche Diagnostics GmbH, 68298 Mannheim, Germany) and lactate (lactate reagent, Sigma-Aldrich GmbH, 82039 Deisenhofen, Germany) were measured.

C57BLKS db/db mice [2] = test: 10 days study: oral glucose tolerance, blood glucose 15 minutes after glucose application; details: fasted 24 h, 15 minutes after 1 g/kg oral glucose
Procedure: as §1, §2, §3
as §4, with “10” for “56”, “9,” for “55,”, “10,” for “56, fasting blood glucose levels were measured and”, “Germany)” for “Germany) and lactate (lactate reagent, Sigma-Aldrich GmbH, 82039 Deisenhofen, Germany)”

C57BLKS db/db mice [3] = test: 56 days study: lactate levels, fasting and after glucose application; details: for Lactate 15 min after glucose application: 1 g/kg oral glucose; for Lactate fasting: serum, fasted 24 h
Procedure: as §1, §2, §3, §4

Lactate 15 min after glucose application (C57BLKS db/db mice [3]; 3 mg/kg oral once daily) [mg/dL]	Lactate 15 min after glucose application (C57BLKS db/db mice [3]; 30 mg/kg oral once daily) [mg/dL]	Lactate fasting (C57BLKS db/db mice [3]; 3 mg/kg oral once daily) [mg/dL]	Lactate fasting (C57BLKS db/db mice [3]; 30 mg/kg oral once daily) [mg/dL]	Compound	Blood glucose 15 min after glucose application (C57BLKS db/db mice [1]; 3 mg/kg oral once daily) [mg/dL]	Blood glucose fasting (C57BLKS db/db mice [1]; 3 mg/kg oral once daily) [mg/dL]	Blood glucose 15 min after glucose application (C57BLKS db/db mice [1]; 30 mg/kg oral once daily) [mg/dL]	Blood glucose fasting (C57BLKS db/db mice [1]; 30 mg/kg oral once daily) [mg/dL]	Blood glucose (C57BLKS db/db mice [2]; 3 mg/kg oral once daily) [mg/dL]	Blood glucose (C57BLKS db/db mice [2]; 30 mg/kg oral once daily) [mg/dL]
70	61	49	43	COc1cc2c(cc1OC)[C@@H]1CCCC[C@@H]1N=C2c1ccc(OCC2CC2)c(OCC2CC2)c1 [COMPOUND A, (−)-cis-8,9-Dimethoxy-6-[3,4-bis-(cyclopropylmethoxy)phenyl]-1,2,3,4,4a,10b-hexahydrophenanthridine]	580	279	352	193	507	411.5
				COc1cc2c(cc1OC)[C@@H]1CCCC[C@@H]1N=C2c1ccc(C(=O)c2ccccc2)cc1 [COMPOUND B, (−)-cis-8,9-Dimethoxy-6-(4-benzoylphenyl)-1,2,3,4,4a,10b-hexahydrophenanthridine]					362	251
				COc1cc2c(cc1OC)[C@@H]1CCCC[C@@H]1N=C2c1ccc(C(=O)O)cc1.Cl [COMPOUND C, (+)-cis-8,9-Dimethoxy-6-(4-carboxyphenyl)-1,2,3,4,4a,10b-hexahydrophenanthridine Hydrochloride]					506	449
				CCn1nnc(-c2ccc(C3=N[C@H]4CCCC[C@H]4c4cc(OC)c(OC)cc43)cc2)n1 [COMPOUND D, (−)-cis-6-[4-(2-Ethyl-2H-tetrazol-5-yl)-phenyl]-8,9-dimethoxy-1,2,3,4,4a,10b-hexahydrophenanthridine]					437	285
